Data on 20 molecules can be found in patent publication US12570642B2, “GLP-IR modulating compounds” (Gilead Sciences, Inc., priority 2021, dated 2026).

By EC50 is commonly meant the concentration giving half of the maximal effect.

Chain of GLP-1R (P43220 24-463): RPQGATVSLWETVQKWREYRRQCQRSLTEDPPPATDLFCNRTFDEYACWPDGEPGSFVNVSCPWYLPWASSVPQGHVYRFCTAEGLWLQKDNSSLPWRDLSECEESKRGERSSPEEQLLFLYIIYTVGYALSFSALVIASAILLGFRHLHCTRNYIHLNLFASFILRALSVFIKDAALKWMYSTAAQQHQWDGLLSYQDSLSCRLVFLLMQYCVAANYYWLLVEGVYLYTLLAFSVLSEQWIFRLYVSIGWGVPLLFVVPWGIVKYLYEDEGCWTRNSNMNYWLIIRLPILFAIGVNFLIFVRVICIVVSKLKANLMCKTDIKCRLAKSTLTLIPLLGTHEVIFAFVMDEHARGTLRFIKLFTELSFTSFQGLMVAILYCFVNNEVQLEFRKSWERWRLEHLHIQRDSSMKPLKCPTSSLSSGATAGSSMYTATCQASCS

One assay addresses GLP-1R (Homo sapiens, UniProt P43220). Kind of assay: GLP-1R Activation - cAMP Assay. It counts as cell-based. The following applies: […]; each compound run on one of the two cAMP assays (Assay 1 or Assay 2, not specified). In a few lines: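 cAMP rise read by HTRF after 30 min agonist exposure (10-point titration, 37 °C) in HBSS/20 mM Hepes/0.1% BSA, following 1 h pre-incubation. Cells: stable GLP-1R CHO line, 1,000/well, seeded overnight. Sigmoidal fit of response vs log concentration gives EC50.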
(cAMP levels reflect the balance of adenylyl cyclase and phosphodiesterase activity.)
With `COC(=O)N1C[C@H](OC)[C@H](n2c(Cc3cc(F)c(-c4cccc(OCc5ccc(C#N)cc5F)n4)cc3F)nc3ccc(C(=O)O)cc32)C1` [Example 85], the response was half-maximal at 1440 nM (EC50).
On the same count and under the same terms, next, `COC(=O)N1C[C@@H](n2c(Cc3cc(F)c(-c4cccc(OCc5ccc(C#N)cc5F)n4)cc3F)nc3ccc(C(=O)O)cc32)[C@H](OC)C1` [Example 86, 2-(4-(6-((4-cyano-2-fluorobenzyl)oxy)pyridin-2-yl)-2,5-difluorobenzyl)-1-((3R,4R)-4-methoxy-1-(methoxycarbonyl)pyrrolidin-3-yl)-1H-benzo[d]imidazole-6-carboxylic Acid]: 140 nM; `COC(=O)N1C[C@@H](OC)[C@@H](n2c(Cc3cc(F)c(-c4cccc(OCc5ccc(C#N)cc5F)n4)cc3F)nc3ccc(C(=O)O)cc32)C1` [Example 87, 2-(4-(6-((4-cyano-2-fluorobenzyl)oxy)pyridin-2-yl)-2,5-difluorobenzyl)-1-((3S,4R)-4-methoxy-1-(methoxycarbonyl)pyrrolidin-3-yl)-1H-benzo[d]imidazole-6-carboxylic Acid]: 22.5 nM.
`CO[C@@H]1CN(S(C)(=O)=O)C[C@H]1n1c(Cc2cc(F)c(-c3cccc(OCc4ccc(C#N)cc4F)n3)cc2F)nc2ccc(C(=O)O)cc21` [Example 88] displayed an EC50 of 136 nM.
With `CO[C@@H]1CN(S(C)(=O)=O)C[C@@H]1n1c(Cc2cc(F)c(-c3cccc(OCc4ccc(C#N)cc4F)n3)cc2F)nc2ccc(C(=O)O)cc21` [Example 89, 2-(4-(6-((4-cyano-2-fluorobenzyl)oxy)pyridin-2-yl)-2,5-difluorobenzyl)-1-((3S,4R)-4-methoxy-1-(methylsulfonyl)pyrrolidin-3-yl)-1H-benzo[d]imidazole-6-carboxylic Acid], a half-maximal effect (EC50) was put at 15.3 nM.

Staying with this assay, now noted: cAMP increase in CHO cells stably expressing GLP-1R; each compound run on one of the two cAMP assays (Assay 1 or Assay 2, not specified).
`N#Cc1ccc(COc2cccc(-c3cc(F)c(Cc4nc5ccc(C(=O)O)cc5n4C45COC(C4)C5)cc3F)n2)c(F)c1` [Example 66, 1-(2-oxabicyclo[2.1.1]hexan-4-yl)-2-(4-(6-((4-cyano-2-fluorobenzyl)oxy)pyridin-2-yl)-2,5-difluorobenzyl)-1H-benzo[d]imidazole-6-carboxylic Acid] yielded a concentration giving a half-maximal response (EC50) of 12.9 nM.
The same measure, in the same setting: to `N#Cc1ccc(COc2cccc(-c3cc(F)c(Cc4nc5ccc(C(=O)O)cc5n4N4CCCC4)cc3F)n2)c(F)c1` [Example 67, 2-(4-(6-((4-cyano-2-fluorobenzyl)oxy)pyridin-2-yl)-2,5-difluorobenzyl)-1-(pyrrolidin-1-yl)-1H-benzo[d]imidazole-6-carboxylic Acid] belongs 7.25 nM; to `N#Cc1ccc(COc2cccc(-c3cc(F)c(Cc4nc5ccc(C(=O)O)cc5n4C4COC5CC4C5)cc3F)n2)c(F)c1` (centres unmarked) [Example 68, 1-(2-oxabicyclo[3.1.1]heptan-4-yl)-2-(4-(6-((4-cyano-2-fluorobenzyl)oxy)pyridin-2-yl)-2,5-difluorobenzyl)-1H-benzo[d]imidazole-6-carboxylic Acid], 0.33 nM.
Same read-out and setting: next, `N#Cc1ccc(COc2cccc(-c3cc(F)c(Cc4nc5ccc(C(=O)O)cc5n4C45COCC4C5)cc3F)n2)c(F)c1` (centres unmarked) [Example 69, 1-(3-oxabicyclo[3.1.0]hexan-1-yl)-2-(4-(6-((4-cyano-2-fluorobenzyl)oxy)pyridin-2-yl)-2,5-difluorobenzyl)-1H-benzo[d]imidazole-6-carboxylic Acid]: 13.8 nM; `CO[C@H]1CCOC[C@H]1n1c(Cc2cc(F)c(-c3cccc(OCc4ccc(C#N)cc4F)n3)cc2F)nc2ccc(C(=O)O)cc21` [Example 70, 2-(4-(6-((4-cyano-2-fluorobenzyl)oxy)pyridin-2-yl)-2,5-difluorobenzyl)-1-((3R,4S)-4-methoxytetrahydro-2H-pyran-3-yl)-1H-benzo[d]imidazole-6-carboxylic Acid]: 0.26 nM.
Take `N#Cc1ccc(COc2cccc(-c3cc(F)c(Cc4nc5ccc(C(=O)O)cc5n4[C@H]4C[C@H]5CO[C@@H]4C5)cc3F)n2)c(F)c1` [Example 71, 1-((1R,4R,6S)-2-oxabicyclo[2.2.1]heptan-6-yl)-2-(4-(6-((4-cyano-2-fluorobenzyl)oxy)pyridin-2-yl)-2,5-difluorobenzyl)-1H-benzo[d]imidazole-6-carboxylic Acid]: the EC50 worked out at 1.19 nM.
Same read-out and setting: to `CC1(C)OCCC1n1c(Cc2cc(F)c(-c3cccc(OCc4ccc(C#N)cc4F)n3)cc2F)nc2ccc(C(=O)O)cc21` (centres unmarked) [Example 74, 2-(4-(6-((4-cyano-2-fluorobenzyl)oxy)pyridin-2-yl)-2,5-difluorobenzyl)-1-(2,2-dimethyltetrahydrofuran-3-yl)-1H-benzo[d]imidazole-6-carboxylic Acid] belongs 4.38 nM.
The same measure, in the same setting: to `CC1(C)COCC1n1c(Cc2cc(F)c(-c3cccc(OCc4ccc(C#N)cc4F)n3)cc2F)nc2ccc(C(=O)O)cc21` (centres unmarked) [Example 78, 2-(4-(6-((4-cyano-2-fluorobenzyl)oxy)pyridin-2-yl)-2,5-difluorobenzyl)-1-(4,4-dimethyltetrahydrofuran-3-yl)-1H-benzo[d]imidazole-6-carboxylic Acid] belongs 0.36 nM.
Same read-out and setting: next, `N#Cc1ccc(COc2cccc(-c3cc(F)c(Cc4nc5ccc(C(=O)O)cc5n4[C@@H]4CO[C@H]5COC[C@H]54)cc3F)n2)c(F)c1` [Example 79, 2-(4-(6-((4-cyano-2-fluorobenzyl)oxy)pyridin-2-yl)-2,5-difluorobenzyl)-1-((3S,3aR,6aR)-hexahydrofuro[3,4-b]furan-3-yl)-1H-benzo[d]imidazole-6-carboxylic Acid]: 5.62 nM; `N#Cc1ccc(COc2cccc(-c3cc(F)c(Cc4nc5ccc(C(=O)O)cc5n4[C@@H]4CO[C@@H]5CNC[C@H]45)cc3F)n2)c(F)c1` [Example 80, 2-(4-(6-((4-cyano-2-fluorobenzyl)oxy)pyridin-2-yl)-2,5-difluorobenzyl)-1-((3S,3aR,6aS)-hexahydro-2H-furo[2,3-c]pyrrol-3-yl)-1H-benzo[d]imidazole-6-carboxylic Acid]: 4.91 nM; `N#Cc1ccc(COc2cccc(-c3cc(F)c(Cc4nc5ccc(C(=O)O)cc5n4C4CCS(=O)(=O)C4)cc3F)n2)c(F)c1` (centres unmarked) [Example 81, 2-(4-(6-((4-cyano-2-fluorobenzyl)oxy)pyridin-2-yl)-2,5-difluorobenzyl)-1-(1,1-dioxidotetrahydrothiophen-3-yl)-1H-benzo[d]imidazole-6-carboxylic Acid]: 40.9 nM.
With `N#Cc1ccc(COc2cccc(-c3cc(F)c(Cc4nc5ccc(C(=O)O)cc5n4C4CCOCC45CC5)cc3F)n2)c(F)c1` (centres unmarked) [Example 82, 2-(4-(6-((4-cyano-2-fluorobenzyl)oxy)pyridin-2-yl)-2,5-difluorobenzyl)-1-(5-oxaspiro[2.5]octan-8-yl)-1H-benzo[d]imidazole-6-carboxylic Acid], a half-maximal effect (EC50) was put at 1.6 nM.
Still for that read-out and setting: next, `CC1(C)COCCC1n1c(Cc2cc(F)c(-c3cccc(OCc4ccc(C#N)cc4F)n3)cc2F)nc2ccc(C(=O)O)cc21` (centres unmarked) [Example 83, 2-(4-(6-((4-cyano-2-fluorobenzyl)oxy)pyridin-2-yl)-2,5-difluorobenzyl)-1-(3,3-dimethyltetrahydro-2H-pyran-4-yl)-1H-benzo[d]imidazole-6-carboxylic Acid]: 0.62 nM; `COCCn1c(Cc2cc(F)c(-c3cccc(OCc4ccc(C#N)cc4F)n3)cc2F)nc2c(-c3ccccn3)cc(C(=O)O)cc21` [Example 84]: 1.34 nM; `Cn1cc(-c2cc(F)c(COc3cccc(-c4cc(F)c(Cc5nc6ccc(C(=O)O)cc6n5C5COCC5(C)C)cc4F)n3)cn2)cn1` (centres unmarked) [Example 90]: 0.7 nM.
